Assay: mn = molality of the nth substance listed, in mol/kg
Conditions: Liquid, Capillary tube (Ostwald / Ubbelohde) method

[Cl-].[Li+] [lithium chloride] + O
viscosity [mPa·s]
Conditions	100 kPa	10000 kPa	20000 kPa	40000 kPa
298.15 K, m1 = 0.0473	0.8971	0.8975	0.898	0.899
298.15 K, m1 = 0.1185	0.907	0.9075	0.908	0.909
298.15 K, m1 = 0.4814	0.9559	0.9562	0.957	0.958
298.15 K, m1 = 1.242	1.062	1.062	1.062	1.062
298.15 K, m1 = 2.621	1.289	1.29	1.291	1.292
298.15 K, m1 = 5.897	1.925	1.926	1.927	1.928
298.15 K, m1 = 7.863	2.535	2.536	2.537	2.538
298.15 K, m1 = 10.11	3.426	3.427	3.428	3.429
298.15 K, m1 = 12.7	5.414	5.416	5.418	5.42
298.15 K, m1 = 16.39	9.44	9.443	9.449	9.451
323.15 K, m1 = 0.0473	0.5513	0.5535	0.5551	0.5594
323.15 K, m1 = 0.1185	0.5573	0.5599	0.5618	0.5665
323.15 K, m1 = 0.4814	0.5884	0.5905	0.5927	0.5974
323.15 K, m1 = 1.242	0.6546	0.657	0.66	0.66
323.15 K, m1 = 2.621	0.7967	0.8	0.8028	0.8094
323.15 K, m1 = 5.897	1.206	1.21	1.215	1.224
323.15 K, m1 = 7.863	1.576	1.582	1.588	1.601
323.15 K, m1 = 10.11	2.116	2.123	2.131	2.147
323.15 K, m1 = 12.7	3.121	3.131	3.143	3.167
323.15 K, m1 = 16.39	5.173	5.19	5.209	5.249
348.15 K, m1 = 0.0473	0.381	0.3839	0.387	0.392
348.15 K, m1 = 0.1185	0.3851	0.388	0.391	0.3968
348.15 K, m1 = 0.4814	0.4072	0.4099	0.4128	0.4189
348.15 K, m1 = 1.242	0.4536	0.4575	0.462	0.462
348.15 K, m1 = 2.621	0.5541	0.5583	0.5621	0.5704
348.15 K, m1 = 5.897	0.8423	0.8484	0.8546	0.8667
348.15 K, m1 = 7.863	1.102	1.109	1.117	1.133
348.15 K, m1 = 10.11	1.466	1.476	1.487	1.507
348.15 K, m1 = 12.7	2.075	2.09	2.104	2.134
348.15 K, m1 = 16.39	3.293	3.316	3.339	3.386
370.2 K, m1 = 2.621	0.428	0.4328	0.4367	0.4449
370.4 K, m1 = 7.863	0.8587	0.867	0.8747	0.8907
370.45 K, m1 = 10.11	1.127	1.138	1.148	1.169
370.55 K, m1 = 12.7	1.53	1.544	1.559	1.587
370.7 K, m1 = 5.897	0.6536	0.6594	0.666	0.6781
371.25 K, m1 = 1.242	0.3462	0.3496	0.353	0.353
371.43 K, m1 = 0.4814	0.3099	0.313	0.3159	0.3217
372.06 K, m1 = 0.1185	0.2906	0.2912	0.2961	0.3015
372.33 K, m1 = 0.0473	0.2867	0.2894	0.2921	0.2975
372.4 K, m1 = 16.39	2.308	2.329	2.351	2.394
397.2 K, m1 = 5.897	–	0.5175	0.5233	0.5352
397.25 K, m1 = 12.7	–	1.162	1.175	1.202
397.6 K, m1 = 10.11	–	0.8792	0.8897	0.9092
398.95 K, m1 = 0.0473	–	0.2258	0.228	0.2335
399.2 K, m1 = 16.39	–	1.71	1.73	1.769
399.31 K, m1 = 7.863	–	0.6675	0.6758	0.6916
399.72 K, m1 = 2.621	–	0.3286	0.3327	0.3409
399.74 K, m1 = 0.1185	–	0.2261	0.2292	0.2339
399.75 K, m1 = 0.4814	–	0.24	0.243	0.2483
400.25 K, m1 = 1.242	–	0.2663	0.2696	0.2696
420.32 K, m1 = 0.4814	–	0.2047	0.2074	0.2127
421.03 K, m1 = 0.1185	–	0.1915	0.1941	0.199
421.96 K, m1 = 5.897	–	0.4291	0.435	0.4463
422.4 K, m1 = 1.242	–	0.2248	0.2281	0.2281
422.51 K, m1 = 10.11	–	0.7257	0.7354	0.7544
423.8 K, m1 = 12.7	–	0.9216	0.9345	0.9595
424.5 K, m1 = 16.39	–	1.333	1.351	1.386
424.51 K, m1 = 7.863	–	0.5562	0.564	0.5785
424.52 K, m1 = 0.0473	–	0.1848	0.1879	0.1928
425.84 K, m1 = 2.621	–	0.2701	0.2739	0.2812
446.9 K, m1 = 12.7	–	0.7773	0.7897	0.8123
447.18 K, m1 = 5.897	–	0.3666	0.3725	0.384
448.7 K, m1 = 10.11	–	0.6126	0.622	0.6415
448.75 K, m1 = 0.1185	–	0.1599	0.1628	0.1675
449.16 K, m1 = 0.0473	–	0.1575	0.16	0.1655
449.75 K, m1 = 16.39	–	1.091	1.108	1.141
449.82 K, m1 = 7.863	–	0.4786	0.4862	0.5006
450.7 K, m1 = 1.242	–	0.1876	0.1908	0.1908
450.74 K, m1 = 0.4814	–	0.1681	0.1707	0.1758
452.54 K, m1 = 2.621	–	0.2292	0.2329	0.2399
470.42 K, m1 = 1.242	–	0.1686	0.1717	0.1717
471.5 K, m1 = 5.897	–	0.322	0.3277	0.3385
471.52 K, m1 = 16.39	–	0.9346	0.951	0.982
472.03 K, m1 = 0.1185	–	0.1403	0.143	0.1477
472.3 K, m1 = 7.863	–	0.4267	0.4344	0.4487
472.52 K, m1 = 12.7	–	0.6626	0.6742	0.6964
473.7 K, m1 = 0.4814	–	0.1482	0.1509	0.1559
473.8 K, m1 = 10.11	–	0.5335	0.543	0.562
474.25 K, m1 = 0.0473	–	0.137	0.1394	0.1441
476.22 K, m1 = 2.621	–	0.2026	0.2064	0.2135
494.2 K, m1 = 1.242	–	0.1501	0.1532	0.1532
497.12 K, m1 = 2.621	–	0.1843	0.188	0.1951
497.2 K, m1 = 16.39	–	0.807	0.8237	0.8543
497.3 K, m1 = 0.4814	–	0.1323	0.135	0.1401
497.3 K, m1 = 7.863	–	0.3824	0.3901	0.4047
497.83 K, m1 = 0.0473	–	0.122	0.1245	0.1291
498.45 K, m1 = 0.1185	–	0.1233	0.1256	0.1303
499.3 K, m1 = 5.897	–	0.282	0.288	0.2988
499.52 K, m1 = 10.11	–	0.4719	0.4813	0.5
499.82 K, m1 = 12.7	–	0.5736	0.5853	0.6075
520.61 K, m1 = 1.242	–	0.1336	0.137	0.137
520.7 K, m1 = 7.863	–	0.3496	0.358	0.3733
521.37 K, m1 = 0.1185	–	0.111	0.1137	0.1187
521.42 K, m1 = 0.4814	–	0.119	0.1219	0.1271
522.35 K, m1 = 0.0473	–	0.1093	0.1125	0.1168
522.42 K, m1 = 2.621	–	0.1665	0.1706	0.1781
522.94 K, m1 = 10.11	–	0.4262	0.4365	0.4263
523.03 K, m1 = 12.7	–	0.5136	0.5262	0.5488
523.82 K, m1 = 16.39	–	0.7062	0.722	0.754
524.86 K, m1 = 5.897	–	0.2531	0.26	0.2718
545.92 K, m1 = 1.242	–	0.1203	0.124	0.124
547.5 K, m1 = 0.1185	–	0.0993	0.1018	0.1076
547.82 K, m1 = 16.39	–	0.6309	0.648	0.682
548.75 K, m1 = 0.4814	–	0.106	0.1091	0.1148
548.9 K, m1 = 12.7	–	0.4554	0.4693	0.494
549.25 K, m1 = 0.0473	–	0.0974	0.1009	0.106
549.32 K, m1 = 5.897	–	0.2338	0.2411	0.2537
550.4 K, m1 = 2.621	–	0.1487	0.1533	0.1615
573.1 K, m1 = 0.1185	–	0.0885	0.0922	0.0982
573.7 K, m1 = 5.897	–	0.2138	0.2229	0.239
573.81 K, m1 = 12.7	–	0.4053	0.422	0.449
573.86 K, m1 = 2.621	–	0.1352	0.1409	0.1502
574.03 K, m1 = 0.4814	–	0.0947	0.0986	0.1051
574.1 K, m1 = 0.0473	–	0.0871	0.0907	0.0966
574.21 K, m1 = 1.242	–	0.1064	0.111	0.111
574.23 K, m1 = 16.39	–	0.555	0.576	0.615

Source: the NIST ThermoML archive (doi:10.1021/je060124c)
